Results: ChEMBL document CHEMBL1201862, “PubChem BioAssay data set” (2004)
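Following 48 hours of exposure in 96-well plates, responses at five concentrations were used to interpolate endpoints linearly. At the GI50, growth is halved.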 Calls of active or inactive are those of the source. Cut-off read from the data, not from the text of the source: active = GI50 up to about 1.1 µM and inactive = higher.

How the values were obtained:
Test in all cases: inhibition of tumour cell growth, NCI panel, 48 h
K562 = test system: K562
CCRF-CEM = test system: CCRF-CEM
SR = test system: SR
HOP-62 = test system: HOP-62
LOX IMVI = test system: LOX IMVI
KM12 = test system: KM12
IGROV-1 = test system: IGROV-1
MOLT-4 = test system: MOLT-4
SNB-75 = test system: SNB-75
A549 = test system: A549
M14 = test system: M14
A498 = test system: A498
NCI-H522 = test system: NCI-H522
OVCAR-3 = test system: OVCAR-3
SF-295 = test system: SF-295
HCT-15 = test system: HCT-15
MCF7 = test system: MCF7
HCT-116 = test system: HCT-116
MDA-MB-231 = test system: MDA-MB-231
PC-3 = test system: PC-3

Row | SMILES | GI50 (K562) | GI50 (CCRF-CEM) | GI50 (SR) | GI50 (HOP-62) | GI50 (LOX IMVI) | GI50 (KM12) | GI50 (IGROV-1) | GI50 (MOLT-4) | GI50 (SNB-75) | GI50 (A549) | GI50 (M14) | GI50 (A498) | GI50 (NCI-H522) | GI50 (OVCAR-3) | GI50 (SF-295) | GI50 (HCT-15) | GI50 (MCF7) | GI50 (HCT-116) | GI50 (MDA-MB-231) | GI50 (PC-3)
1 | COc1cccc(C2c3cc4c(cc3OC(NNC(N)=O)C2C)OCO4)c1OC (stereo not given) | 19.5 µM (inactive) | 24.7 µM (inactive) | 0.431 µM (active) | 22 µM (inactive) | 19.1 µM (inactive) | 23.2 µM (inactive) | 23.7 µM (inactive) | 16.5 µM (inactive) | 15.8 µM (inactive) | 19.6 µM (inactive) | 17.1 µM (inactive) | 18.2 µM (inactive) | 20.4 µM (inactive) | 17.5 µM (inactive) | 18.1 µM (inactive) | 9.23 µM | 31 µM (inactive) | 14.1 µM (inactive) | 31.7 µM (inactive) | 19.4 µM (inactive)
2 | COC(=O)Cc1ccc2c(c1)Sc1ccc(CC(=O)OC)cc1N2C | 6.75 µM (inactive) | 22 µM (inactive) | 14.4 µM (inactive) | 27.4 µM (inactive) | 14.3 µM (inactive) | 8.07 µM (inactive) | 45.8 µM (inactive) | 9.66 µM (inactive) | > 47.2 µM (inactive) | 24 µM (inactive) | 30.3 µM (inactive) | 40.6 µM (inactive) | 9.75 µM (inactive) | 23.3 µM (inactive) | 22.8 µM (inactive) | 14.7 µM | 9.57 µM (inactive) | 24.1 µM (inactive) | 13.4 µM (inactive) | 25.8 µM (inactive)
3 | COc1cc(C2c3cc4c(cc3OC(NNc3ccccc3)C2C)OCO4)cc(OC)c1OC (stereo not given) | 0.437 µM (active) | 0.885 µM (active) | 0.673 µM (active) | 0.923 µM (active) | 0.706 µM (active) | 0.395 µM (active) | 1.26 µM (inactive) | 1.09 µM (active) | 8.3 µM (inactive) | 1.6 µM (inactive) | 0.869 µM (active) | 2.22 µM (inactive) | 0.977 µM (active) | 0.993 µM (active) | 0.361 µM (active) | 0.417 µM | 0.714 µM (active) | 1.03 µM (active) | 3.26 µM (inactive) | 0.778 µM (active)
4 | Cc1cc(=O)oc2cc3oc(N(C)c4ccccc4)nc(=O)c3cc12 | > 100 µM (inactive) | > 100 µM (inactive) | 82.2 µM (inactive) | > 100 µM (inactive) | > 100 µM (inactive) | > 100 µM (inactive) | > 100 µM (inactive) | > 100 µM (inactive) | > 100 µM (inactive) | > 100 µM (inactive) | > 100 µM (inactive) | > 100 µM (inactive) | 58.9 µM (inactive) | > 100 µM (inactive) | > 100 µM (inactive) | > 100 µM | > 100 µM (inactive) | > 100 µM (inactive) | > 100 µM (inactive) | > 100 µM (inactive)
5 | N=c1c2c(=S)n(-c3ccccc3)c(=S)n(-c3ccccc3)c2nc(SCCN2CCOCC2)n1-c1ccccc1 | 1.47 µM (inactive) | 1.38 µM (inactive) | 0.475 µM (active) | 2.12 µM (inactive) | 1.71 µM (inactive) | 2.44 µM (inactive) | 1.76 µM (inactive) | 1.46 µM (inactive) | 2.07 µM (inactive) | 1.78 µM (inactive) | 1.93 µM (inactive) | 3.52 µM (inactive) | 1.67 µM (inactive) | 1.8 µM (inactive) | 7.19 µM (inactive) | 1.91 µM | 1.35 µM (inactive) | 1.85 µM (inactive) | 2.12 µM (inactive) | 1.85 µM (inactive)
6 | O=C1CC(O)c2c(Br)sc(Br)c21 (stereo not given) | 2.8 µM (inactive) | 0.728 µM (active) | 5.25 µM (inactive) | 10.6 µM (inactive) | 4.48 µM (inactive) | 7.48 µM (inactive) | 15.9 µM (inactive) | 1.91 µM (inactive) | 16 µM (inactive) | 19.3 µM (inactive) | 13.9 µM (inactive) | 19.9 µM (inactive) | 8.28 µM (inactive) | 4.69 µM (inactive) | 17.1 µM (inactive) | 11.3 µM | 3.46 µM (inactive) | 12.4 µM (inactive) | 15.2 µM (inactive) | 13 µM (inactive)
7 | COc1ccc(C2c3cc4c(cc3OC3(OC)COC(=O)C23)OCO4)c(OC)c1 (stereo not given) | 5.08 µM (inactive) | 4.32 µM (inactive) | 4.49 µM (inactive) | 8.39 µM (inactive) | 6.95 µM (inactive) | 3.43 µM (inactive) | 10.5 µM (inactive) | 4.91 µM (inactive) | 8.93 µM (inactive) | 10.1 µM (inactive) | 3.73 µM (inactive) | 39.5 µM (inactive) | 2.43 µM (inactive) | 4.72 µM (inactive) | 12.8 µM (inactive) | 5.19 µM | 4.85 µM (inactive) | 5.33 µM (inactive) | 27.1 µM (inactive) | 17.7 µM (inactive)
